Experimental data published in patent publication US10272102B2, “Hydroxyalkyl starch for the treatment of hematological neoplasms” (FRESENIUS KABI DEUTSCHLAND GMBH, priority 2013, dated 2019).

Key:
Kasumi-1 = test: Prestoblue fluorescence cell viability assay, Kasumi-1; format: cell-based; conditions: Kasumi-1 (AML), 72 h incubation
Experimental: (§1) The objective of this study was to investigate potential effects of hydroxyethyl starch (“HES 130/0.4”) on cell viability of different leukemia cell lines. The 50% inhibition concentration (IC50) was determined in 28 different leukemia cell lines using the commercially available “Prestoblue fluorescence cell viability assay” after incubation with different “HES 130/0.4” concentrations for screening reasons. The concentration range of the tested HES was 100 mg/ml-[…].
(§2) PrestoBlue® reagent is a resazurin-based solution that functions as a cell viability indicator by using the reducing power of living cells to quantitatively measure the proliferation of cells. […] This change can be detected using fluorescence or absorbance measurements (see e.g. Int J Microbiol. 2013; 2013: 420601; published online Apr. 4, 2013 doi: 10.1155/2013/420601 PMCID PMC3638707). […]
(§3) Cells were harvested during the logarithmic growth period and counted using the commercially available cell counting device Countstar. […]
(§4) The test plate was incubated for 72 h in a humidified incubator at 37° C. with 5% CO2, and then measured by means of PrestoBlue assay. […] The plate was then incubated at room temperature for 30 minutes until fluorescence (T0) could be recorded using EnVision Multi Label Reader (Excitation: 540-570 nm/Emission: 580-610 nm). […]

JVM-2 = test: Prestoblue fluorescence cell viability assay, JVM-2; format: cell-based; conditions: JVM-2 (CLL), 72 h incubation
Experimental: as §1, §2, §3, §4

MOLM-13 = test: Prestoblue fluorescence cell viability assay, MOLM-13; format: cell-based; conditions: MOLM-13 (AML), 72 h incubation
Experimental: as §1, §2, §3, §4

MUTZ-5 = test: Prestoblue fluorescence cell viability assay, MUTZ-5; format: cell-based; conditions: MUTZ-5 (ALL), 72 h incubation
Experimental: as §1, §2, §3, §4

KU812 = test: Prestoblue fluorescence cell viability assay, KU812; format: cell-based; conditions: KU812 (CML), 72 h incubation
Experimental: as §1, §2, §3, §4

MHH-CALL-2 = test: Prestoblue fluorescence cell viability assay, MHH-CALL-2; format: cell-based; conditions: MHH-CALL-2 (ALL), 72 h incubation
Experimental: as §1, §2, §3, §4

JVM-3 = test: Prestoblue fluorescence cell viability assay, JVM-3; format: cell-based; conditions: JVM-3 (CLL), 72 h incubation
Experimental: as §1, §2, §3, §4

MV-4-11 = test: Prestoblue fluorescence cell viability assay, MV-4-11; format: cell-based; conditions: MV-4-11 (AML), 72 h incubation
Experimental: as §1, §2, §3, §4

Jurkat = test: Prestoblue fluorescence cell viability assay, Jurkat; format: cell-based; conditions: Jurkat (ALL), 72 h incubation
Experimental: as §1, §2, §3, §4

TF-1 = test: Prestoblue fluorescence cell viability assay, TF-1; format: cell-based; conditions: TF-1 (AML), 72 h incubation
Experimental: as §1, §2, §3, §4

MOLM-16 = test: Prestoblue fluorescence cell viability assay, MOLM-16; format: cell-based; conditions: MOLM-16 (AML), 72 h incubation
Experimental: as §1, §2, §3, §4

Reh = test: Prestoblue fluorescence cell viability assay, Reh; format: cell-based; conditions: 72 h incubation
Experimental: as §1, §2, §3, §4

JVM-13 = test: Prestoblue fluorescence cell viability assay, JVM-13; format: cell-based; conditions: JVM-13 (CLL), 72 h incubation
Experimental: as §1, §2, §3, §4

EHEB = test: Prestoblue fluorescence cell viability assay, EHEB; format: cell-based; conditions: EHEB (CLL), 72 h incubation
Experimental: as §1, §2, §3, §4

MEC-2 = test: Prestoblue fluorescence cell viability assay, MEC-2; format: cell-based; conditions: MEC-2 (CLL), 72 h incubation
Experimental: as §1, §2, §3, §4

MEG-01 = test: Prestoblue fluorescence cell viability assay, MEG-01; format: cell-based; conditions: MEG-01 (CML), 72 h incubation
Experimental: as §1, §2, §3, §4

MEC-1 = test: Prestoblue fluorescence cell viability assay, MEC-1; format: cell-based; conditions: MEC-1 (CLL), 72 h incubation
Experimental: as §1, §2, §3, §4

NB4 = test: Prestoblue fluorescence cell viability assay, NB4; format: cell-based; conditions: NB4 (AML), 72 h incubation
Experimental: as §1, §2, §3, §4

K-562 = test: Prestoblue fluorescence cell viability assay, K-562; format: cell-based; conditions: K-562 (CML), 72 h incubation
Experimental: as §1, §2, §3, §4

NALM 6 = test: Prestoblue fluorescence cell viability assay, NALM 6; format: cell-based; conditions: NALM 6 (ALL), 72 h incubation
Experimental: as §1, §2, §3, §4

CCRF-SB = test: Prestoblue fluorescence cell viability assay, CCRF-SB; format: cell-based; conditions: CCRF-SB (ALL), 72 h incubation
Experimental: as §1, §2, §3, §4

THP-1 = test: Prestoblue fluorescence cell viability assay, THP-1; format: cell-based; conditions: THP-1 (AML), 72 h incubation
Experimental: as §1, §2, §3, §4

Molt-4 = test: Prestoblue fluorescence cell viability assay, Molt-4; format: cell-based; conditions: Molt-4 (ALL), 72 h incubation
Experimental: as §1, §2, §3, §4

PEER IE6 = test: Prestoblue fluorescence cell viability assay, PEER IE6; format: cell-based; conditions: PEER IE6 (ALL), 72 h incubation
Experimental: as §1, §2, §3, §4

HL-60 = test: Prestoblue fluorescence cell viability assay, HL-60; format: cell-based; conditions: HL-60 (AML), 72 h incubation
Experimental: as §1, §2, §3, §4

SUP-B15 = test: Prestoblue fluorescence cell viability assay, SUP-B15; format: cell-based; conditions: SUP-B15 (ALL), 72 h incubation
Experimental: as §1, §2, §3, §4

ML-2 = test: Prestoblue fluorescence cell viability assay, ML-2; format: cell-based; conditions: ML-2 (AML), 72 h incubation
Experimental: as §1, §2, §3, §4

RS4;11 = test: Prestoblue fluorescence cell viability assay, RS4;11; format: cell-based; conditions: RS4;11 (ALL), 72 h incubation
Experimental: as §1, §2, §3, §4

[1] = tested on: human acute myelogeneous leukemia EOL-1 cell line; test: s.c. EOL-1 xenotransplantation model, tumor growth; format: in vivo; conditions: EOL-1 tumor-bearing male NOD/SCID mice; 75 mg/kg i.p. single dose (day 0)
Experimental: For calculation of the relative tumor volume (RTV) the tumor volumes at each measurement day were related to the day of first treatment. At each measurement day the median and mean tumor volumes per group and also the treated to control (T/C) values in percent were calculated.

N.N.[Cl][Pt][Cl] [Cisplatin, cisplatin]
IC50 (Kasumi-1): 780 µg/mL
Max-inhibition (Kasumi-1): 100%
IC50 (JVM-2): 180 µg/mL
Max-inhibition (JVM-2): 100%
IC50 (MOLM-13): 340 µg/mL
Max-inhibition (MOLM-13): 100%
IC50 (MUTZ-5): 190 µg/mL
Max-inhibition (MUTZ-5): 100%
IC50 (KU812): 250 µg/mL
Max-inhibition (KU812): 100%
IC50 (MHH-CALL-2): 140 µg/mL
Max-inhibition (MHH-CALL-2): 100%
IC50 (JVM-3): 270 µg/mL
Max-inhibition (JVM-3): 100%
IC50 (MV-4-11): 160 µg/mL
Max-inhibition (MV-4-11): 100%
IC50 (Jurkat): 200 µg/mL
Max-inhibition (Jurkat): 100%
IC50 (TF-1): 1720 µg/mL
Max-inhibition (TF-1): 100%
IC50 (MOLM-16): 650 µg/mL
Max-inhibition (MOLM-16): 100%
Max-inhibition (Reh; Reh (AML)): 100%
IC50 (Reh; Reh (B-ALL)): 170 µg/mL
IC50 (JVM-13): 180 µg/mL
Max-inhibition (JVM-13): 100%
IC50 (EHEB): 490 µg/mL
Max-inhibition (EHEB): 100%
IC50 (MEC-2): 1670 µg/mL
Max-inhibition (MEC-2): 100%
IC50 (MEG-01): 830 µg/mL
Max-inhibition (MEG-01): 100%
IC50 (MEC-1): 1150 µg/mL
Max-inhibition (MEC-1): 100%
IC50 (NB4): 140 µg/mL
Max-inhibition (NB4): 100%
IC50 (K-562): 1290 µg/mL
Max-inhibition (K-562): 100%
IC50 (NALM 6): 240 µg/mL
Max-inhibition (NALM 6): 100%
IC50 (CCRF-SB): 100 µg/mL
Max-inhibition (CCRF-SB): 100%
IC50 (THP-1): 640 µg/mL
Max-inhibition (THP-1): 100%
IC50 (Molt-4): 150 µg/mL
Max-inhibition (Molt-4): 100%
IC50 (PEER IE6): 3730 µg/mL
Max-inhibition (PEER IE6): 100%
IC50 (HL-60): 450 µg/mL
Max-inhibition (HL-60): 100%
IC50 (SUP-B15): 450 µg/mL
Max-inhibition (SUP-B15): 100%
IC50 (ML-2): 350 µg/mL
Max-inhibition (ML-2): 100%
IC50 (RS4;11): 50 µg/mL
Max-inhibition (RS4;11): 100%

O=P1(N(CCCl)CCCl)NCCCO1 (stereo not drawn) [Cyclophosphamide]
inhibition of tumor growth [1]: significant inhibition
